Experiment: Retrospective analysis of tacrolimus trough levels (TTL) under SOC dosing, 30 days after pediatric liver transplantation
Assay type: in vivo, pediatric liver transplant patients
Protocol: CURATE.AI requires two components to be supplied into the platform as inputs: the administered tacrolimus dose in mg (dose) and the corresponding TTL in ng/ml (response) to generate a personalized profile for each patient. […] The response input was the corresponding TTL response measured the next day, right before the morning dose. Days with two measurements of TTL (taken in the morning and evening) instead of one, which is the standard frequency, were excluded. TTL measurements <2 ng/ml were assessed to be inaccurate as the measurement equipment was unable to provide resolution for TTL<2 ng/ml, and were thus excluded. All measurements in the records were only taken once each. Doses recorded from day 30 post-transplant onwards were not included as part of this study since it is during the initial post-transplant period that fluctuations in TTL are common; thereby requiring frequent adjustments in drug dosing. […] Doses recorded from the day of discharge onwards were assessed to be unreliable, as confirmation of the doses administered was not possible, and thus excluded. This study used dose-response pairs over a set of consecutive days for each patient for the analysis by CURATE.AI. Dose ranges were categorized as low (<2 mg), medium (2 mg to <4 mg), and high (≥4 mg).
The normality of the data distribution was tested with the Shapiro-Wilk test. Continuous variables were represented as mean (standard deviation (SD)) or median (interquartile range (IQR)), depending on the normality of the data type. Two-sided Wilcoxon signed-rank test was used to compare the medians of two non-parametric groups. Two-sided paired t-test was used to compare the means of two related parametric groups. The statistical significance was defined as p<0.05. All analyses were performed in Python (version 3.9.13).
The grey region represents the therapeutic range of between and inclusive of 7 and 10 ng/ml. Blue and orange markers represent TTL outside and within the therapeutic range, respectively. […]

For C=CC[C@@H]1/C=C(\C)C[C@H](C)C[C@H](OC)[C@H]2O[C@@](O)(C(=O)C(=O)N3CCCC[C@H]3C(=O)O[C@H](/C(C)=C/[C@@H]3CC[C@@H](O)[C@H](OC)C3)[C@H](C)[C@@H](O)CC1=O)[C@H](C)C[C@@H]2OC [tacrolimus], which “days within the therapeutic range (TTL 7 to 10 ng/ml), mean” value (16 patients, mean (SD)) is on record?
The value was 42.18 % of days.

And the “mean TTL (tacrolimus trough level)” value (all 16 patients, first 30 days post-transplant, mean (SD))?
Its value is 8.79 ng/mL.

And the “time to first achieve the therapeutic range (TTL 7 to 10 ng/ml), median” value (median (IQR))?
Its value is 5.00 days.

Source: US20260174747A1, “COMPUTER IMPLEMENTED METHODS OF GENERATING DOSE RECOMMENDATIONS” (National University of Singapore, priority 2022, published 2026)
